# Laboratory results reported in patent US9012443B2 (Amgen Inc., priority 2011, dated 2015).
# Like-named read-outs stand apart in the source and are kept apart here.
# How the values were obtained:
# Type in all cases: cell-based
# Nav 1.7 [1] = target: T1, Nav 1.7 (Homo sapiens (Human), UniProt Q15858); assay: Nav 1.7 IWQ in vitro assay (IonWorks Quattro population patch-clamp); details: 293 cells stably transfected with Nav 1.7
# Summary of the method: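 HEK293 cells stably expressing Nav 1.7, recorded by automated population patch-clamp with a train of depolarizations producing increasing inactivation. Single compound concentration added during 3–8 min unclamped period, then same protocol repeated. Leak-corrected current at 26th pulse to −20 mV gave percent block (duplicate); IC50 fitted from concentration–block curves.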
# Nav 1.5 = Nav 1.5 (Homo sapiens (Human), UniProt Q14524); assay: Nav 1.5 in vitro PX assay (PatchXpress whole cell voltage clamp)
# Sequence of Nav 1.5 (Q14524 whole entry): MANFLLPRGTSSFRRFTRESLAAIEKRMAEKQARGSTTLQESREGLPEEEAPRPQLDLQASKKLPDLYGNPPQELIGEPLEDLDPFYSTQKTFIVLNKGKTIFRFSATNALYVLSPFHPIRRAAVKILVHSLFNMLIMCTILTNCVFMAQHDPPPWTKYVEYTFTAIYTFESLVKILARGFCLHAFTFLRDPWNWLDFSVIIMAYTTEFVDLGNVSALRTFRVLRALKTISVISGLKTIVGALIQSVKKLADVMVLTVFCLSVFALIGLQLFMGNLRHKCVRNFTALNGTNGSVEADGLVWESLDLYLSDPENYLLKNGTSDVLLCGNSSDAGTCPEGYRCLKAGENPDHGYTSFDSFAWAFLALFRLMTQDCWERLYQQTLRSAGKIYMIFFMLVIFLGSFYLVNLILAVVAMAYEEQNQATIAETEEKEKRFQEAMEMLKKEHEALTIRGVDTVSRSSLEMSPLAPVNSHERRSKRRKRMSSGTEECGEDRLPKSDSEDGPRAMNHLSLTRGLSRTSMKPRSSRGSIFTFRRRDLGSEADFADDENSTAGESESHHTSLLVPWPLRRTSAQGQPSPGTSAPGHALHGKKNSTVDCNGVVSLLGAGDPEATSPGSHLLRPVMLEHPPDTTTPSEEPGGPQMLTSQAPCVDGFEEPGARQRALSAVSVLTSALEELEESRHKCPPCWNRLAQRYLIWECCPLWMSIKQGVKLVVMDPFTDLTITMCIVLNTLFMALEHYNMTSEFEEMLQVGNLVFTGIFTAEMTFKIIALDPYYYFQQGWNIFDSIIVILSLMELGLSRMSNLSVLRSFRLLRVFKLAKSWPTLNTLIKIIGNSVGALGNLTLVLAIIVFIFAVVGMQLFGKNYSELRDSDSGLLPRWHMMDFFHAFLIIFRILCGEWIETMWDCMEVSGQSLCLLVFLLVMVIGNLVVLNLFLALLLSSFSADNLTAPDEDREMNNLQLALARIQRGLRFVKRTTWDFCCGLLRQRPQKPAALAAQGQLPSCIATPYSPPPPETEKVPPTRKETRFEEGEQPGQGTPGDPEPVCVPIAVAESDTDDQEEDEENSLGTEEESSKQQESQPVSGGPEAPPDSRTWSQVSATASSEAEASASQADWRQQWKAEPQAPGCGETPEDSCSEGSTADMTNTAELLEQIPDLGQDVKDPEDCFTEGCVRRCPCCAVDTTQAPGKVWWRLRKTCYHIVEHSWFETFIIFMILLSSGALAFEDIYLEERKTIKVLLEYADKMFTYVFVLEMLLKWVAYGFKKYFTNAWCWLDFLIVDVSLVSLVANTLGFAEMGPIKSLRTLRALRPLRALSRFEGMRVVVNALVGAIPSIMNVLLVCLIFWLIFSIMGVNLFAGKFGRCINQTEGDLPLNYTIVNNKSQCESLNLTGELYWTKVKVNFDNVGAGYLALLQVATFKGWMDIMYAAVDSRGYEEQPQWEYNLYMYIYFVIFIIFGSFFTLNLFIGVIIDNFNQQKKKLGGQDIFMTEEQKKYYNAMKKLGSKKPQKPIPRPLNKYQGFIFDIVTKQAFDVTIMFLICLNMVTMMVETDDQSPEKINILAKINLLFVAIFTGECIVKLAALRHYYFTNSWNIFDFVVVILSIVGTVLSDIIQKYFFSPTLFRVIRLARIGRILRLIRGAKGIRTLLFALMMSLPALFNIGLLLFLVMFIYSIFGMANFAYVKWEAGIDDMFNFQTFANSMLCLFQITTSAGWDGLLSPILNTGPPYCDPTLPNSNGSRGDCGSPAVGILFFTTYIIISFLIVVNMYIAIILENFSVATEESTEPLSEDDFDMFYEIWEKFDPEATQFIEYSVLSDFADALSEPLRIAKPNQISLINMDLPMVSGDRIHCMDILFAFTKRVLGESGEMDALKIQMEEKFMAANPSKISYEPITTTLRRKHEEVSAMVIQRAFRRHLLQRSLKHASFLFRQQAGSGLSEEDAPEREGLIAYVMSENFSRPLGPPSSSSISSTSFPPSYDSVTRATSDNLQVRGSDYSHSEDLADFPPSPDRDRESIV
# Summary of the method: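 HEK293 cells stably expressing Nav 1.5, whole-cell voltage clamp held at −50 mV; 20 msec test pulses to 0 mV at 0.1 Hz, each preceded by a step to −120 mV.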
# Nav 1.7 [2] = target: T1, Nav 1.7; assay: Nav 1.7 in vitro PX assay (PatchXpress whole cell voltage clamp); details: 293 cells, human Nav1.7, partially inactivated state; read-out: Nav1.7 PX IC50 IP
# Summary of the method: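 HEK293 cells stably expressing human Nav1.7, whole-cell voltage clamp on PatchXpress, held at potential giving 20–50% inactivation; current elicited by 20 msec pulse to −10 mV.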
# [3] = first part of table, read-out: Nav 1.7 IWQ IC50
# [4] = 293 cells stably transfected with Nav 1.5, first part of table, read-out: Nav 1.5 PX IC50
# [5] = second part of table, read-out: Nav1.7 IWQ IC50 IP
# [6] = 293 cells stably transfected with Nav 1.5, second part of table, read-out: Nav1.5 PX IC50
# T1 sequence (Q15858 whole entry): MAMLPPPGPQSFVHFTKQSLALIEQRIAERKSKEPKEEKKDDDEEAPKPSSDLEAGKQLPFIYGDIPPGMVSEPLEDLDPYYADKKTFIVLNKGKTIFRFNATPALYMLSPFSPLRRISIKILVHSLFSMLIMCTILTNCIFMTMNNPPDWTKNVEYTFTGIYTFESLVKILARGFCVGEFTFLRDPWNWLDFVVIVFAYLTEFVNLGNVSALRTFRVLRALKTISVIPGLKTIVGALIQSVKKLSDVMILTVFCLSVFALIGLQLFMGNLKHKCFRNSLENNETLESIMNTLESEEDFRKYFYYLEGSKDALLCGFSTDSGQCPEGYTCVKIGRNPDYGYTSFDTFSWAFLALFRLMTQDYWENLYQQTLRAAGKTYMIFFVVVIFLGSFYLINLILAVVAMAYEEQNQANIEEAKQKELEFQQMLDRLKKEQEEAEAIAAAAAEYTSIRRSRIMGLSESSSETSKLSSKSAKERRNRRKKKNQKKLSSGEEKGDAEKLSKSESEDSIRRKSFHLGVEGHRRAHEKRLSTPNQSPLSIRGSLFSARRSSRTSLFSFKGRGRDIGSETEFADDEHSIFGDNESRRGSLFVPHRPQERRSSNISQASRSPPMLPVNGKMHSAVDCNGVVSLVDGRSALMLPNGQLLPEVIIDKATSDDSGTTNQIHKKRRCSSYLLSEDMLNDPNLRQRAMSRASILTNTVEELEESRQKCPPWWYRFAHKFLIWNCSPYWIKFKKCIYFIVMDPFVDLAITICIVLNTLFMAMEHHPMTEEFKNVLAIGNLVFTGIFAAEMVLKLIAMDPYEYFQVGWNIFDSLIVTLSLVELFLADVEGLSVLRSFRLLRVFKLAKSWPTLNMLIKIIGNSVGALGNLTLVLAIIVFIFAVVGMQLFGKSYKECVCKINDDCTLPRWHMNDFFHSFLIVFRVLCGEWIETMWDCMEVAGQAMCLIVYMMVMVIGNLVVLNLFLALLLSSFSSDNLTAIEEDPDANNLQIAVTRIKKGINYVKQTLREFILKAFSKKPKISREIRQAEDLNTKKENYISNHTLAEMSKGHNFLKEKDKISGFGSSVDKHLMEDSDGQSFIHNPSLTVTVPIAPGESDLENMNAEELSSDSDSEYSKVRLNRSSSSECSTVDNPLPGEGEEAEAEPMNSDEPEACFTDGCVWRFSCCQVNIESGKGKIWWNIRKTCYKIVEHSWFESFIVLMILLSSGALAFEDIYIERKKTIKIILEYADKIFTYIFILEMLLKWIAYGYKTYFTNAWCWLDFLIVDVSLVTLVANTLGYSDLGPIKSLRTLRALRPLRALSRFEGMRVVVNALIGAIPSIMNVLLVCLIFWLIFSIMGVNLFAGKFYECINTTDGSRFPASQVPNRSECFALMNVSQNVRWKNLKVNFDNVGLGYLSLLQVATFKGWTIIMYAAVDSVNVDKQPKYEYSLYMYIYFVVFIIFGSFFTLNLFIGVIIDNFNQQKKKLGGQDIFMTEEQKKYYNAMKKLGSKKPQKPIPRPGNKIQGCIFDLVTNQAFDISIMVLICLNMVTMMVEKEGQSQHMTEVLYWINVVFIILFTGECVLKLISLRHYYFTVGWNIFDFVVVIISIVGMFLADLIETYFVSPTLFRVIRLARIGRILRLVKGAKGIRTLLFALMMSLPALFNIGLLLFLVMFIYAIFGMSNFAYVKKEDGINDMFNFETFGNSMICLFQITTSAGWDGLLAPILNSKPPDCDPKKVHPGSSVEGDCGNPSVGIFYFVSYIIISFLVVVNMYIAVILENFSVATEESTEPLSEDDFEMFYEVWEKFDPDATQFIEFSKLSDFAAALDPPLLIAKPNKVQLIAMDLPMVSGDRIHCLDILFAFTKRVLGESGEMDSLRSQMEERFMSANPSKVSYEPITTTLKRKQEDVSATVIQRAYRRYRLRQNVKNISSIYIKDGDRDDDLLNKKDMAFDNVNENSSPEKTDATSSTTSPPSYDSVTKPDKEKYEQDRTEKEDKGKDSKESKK
Compound,IC50 (Nav 1.7 [1]; [3]),IC50 (Nav 1.7 [1]; [5]),IC50 (Nav 1.7 [2]),IC50 (Nav 1.5; [4]),IC50 (Nav 1.5; [6]),IC50 (Nav 1.5)
CCOc1cc(C(F)(F)F)ccc1-c1cccc2cc(S(=O)(=O)Nc3ncns3)ccc12 [Example 10],50 nM,,,6680 nM,,
O=S(=O)(Nc1ncns1)c1ccc2c(-c3ccc(F)cc3Cl)cccc2c1 [Example 5],170 nM,,,23800 nM,,
"O=S(=O)(Nc1ncns1)c1ccc2c(-c3ccc(Cl)cc3-c3cn[nH]c3)cccc2c1 [Example 27, 5-(4-CHLORO-2-(1H-PYRAZOL-4-YL)PHENYL)-N-(1,2,4-THIADIAZOL-5-YL)NAPHTHALENE-2 SULFONAMIDE]",20 nM,,,> 30000 nM,,
"O=S(=O)(Nc1ncns1)c1ccc2c(N3CCOC(c4ccccc4)C3)cccc2c1 (single isomer, unassigned) [14 (isomer 2), 5-(2-phenylmorpholino)-N-(1,2,4-thiadiazol-5-yl)naphthalene-2-sulfonamide]",1800 nM,,,> 30000 nM,,
O=S(=O)(Nc1ncns1)c1ccc2c(-c3ccc(C(F)(F)F)cc3-c3ccncc3)cccc2c1 [Example 2],30 nM,,,> 30000 nM,,
O=S(=O)(Nc1ncns1)c1ccc2c(-c3ccc(Cl)cc3-c3ccncc3)cccc2c1 [Example 28],50 nM,,,> 30000 nM,,
COc1cc(C(F)(F)F)ccc1-c1cccc2cc(S(=O)(=O)Nc3ncns3)ccc12 [Example 12],10 nM,,,11600 nM,,
O=S(=O)(Nc1ncns1)c1ccc2c(-c3ccccc3)cccc2c1 [Example 9],460 nM,,,23800 nM,,
Cc1cc(C(F)(F)F)ccc1-c1cccc2cc(S(=O)(=O)Nc3ncns3)ccc12 [Example 11],80 nM,,,5070 nM,,
Cn1nccc1-c1cc(Cl)ccc1-c1cccc2cc(S(=O)(=O)Nc3ncns3)ccc12 [Example 25],50 nM,,,> 30000 nM,,
O=S(=O)(Nc1ncns1)c1ccc2c(-c3ccc(Cl)cc3C3=CCNCC3)cccc2c1 [Example 26],20 nM,,,,,> 30000 nM
N#Cc1cc(C(F)(F)F)ccc1-c1cccc2cc(S(=O)(=O)Nc3ncns3)ccc12 [Example 22],40 nM,,,> 30000 nM,,
O=S(=O)(Nc1ncns1)c1ccc2c(-c3ccc(C(F)(F)F)cc3Br)cccc2c1 [Example 23],110 nM,,,20700 nM,,
NC(=O)c1cc(C(F)(F)F)ccc1-c1cccc2cc(S(=O)(=O)Nc3ncns3)ccc12 [Example 32],170 nM,,,> 30000 nM,,
O=S(=O)(Nc1ncns1)c1ccc2c(-c3ccccc3Cl)cccc2c1 [Example 8],200 nM,,,21300 nM,,
O=S(=O)(Nc1ncns1)c1ccc2c(-c3ccc(C(F)(F)F)cc3Cl)cccc2c1 [Example 29],50 nM,,,> 30000 nM,,
O=S(=O)(Nc1ncns1)c1ccc2c(-c3ccc(F)cc3Br)cccc2c1 [Example 3],90 nM,,,24200 nM,,
O=S(=O)(Nc1ncns1)c1ccc2c(-c3ccc(OC(F)(F)F)cc3Cl)cccc2c1 [Example 4],900 nM,,,10900 nM,,
O=S(=O)(Nc1ncns1)c1ccc2c(-c3ccc(Cl)cc3C(F)(F)F)cccc2c1 [Example 39],1540 nM,,,7770 nM,,
"COc1ccc(Cl)cc1-c1n[nH]c(=O)c2cc(S(=O)(=O)Nc3nccs3)ccc12 [Example 501, 1-(5-CHLORO-2-METHOXYPHENYL)-4-OXO-N-(THIAZOL-2-YL)-3,4-DIHYDROPHTHALAZINE-6-SULFONAMIDE]",,,124 nM,,,> 30000 nM

# Further lines, with some results ahead:
IC50 (Nav 1.7 [1]; [3]),IC50 (Nav 1.7 [1]; [5]),IC50 (Nav 1.7 [2]),Compound,IC50 (Nav 1.5; [4]),IC50 (Nav 1.5; [6]),IC50 (Nav 1.5)
40 nM,,,"Cn1nccc1-c1cc(C(F)(F)F)ccc1-c1nccc2cc(S(=O)(=O)Nc3ncns3)ccc12 [Example 54, 1-(2-(1-METHYL-1H-PYRAZOL-5-YL)-4-(TRIFLUOROMETHYL)PHENYL)-N-(1,2,4-THIADIAZOL-5-YL)ISOQUINOLINE-6-SULFONAMIDE]",> 30000 nM,,
10 nM,,,"O=S(=O)(Nc1ncns1)c1ccc2c(-c3ccc(C(F)(F)F)cc3-c3cn[nH]c3)nccc2c1 [Example 55, 1-(2-(1H-PYRAZOL-4-YL)-4-(TRIFLUOROMETHYL)PHENYL)-N-(1,2,4-THIADIAZOL-5-YL)ISOQUINOLINE-6-SULFONAMIDE]",> 30000 nM,,
1970 nM,,,O=S(=O)(Nc1ncns1)c1ccc2c(-c3ccc(Cl)cc3Cl)cccc2c1 [Example 40],> 30000 nM,,
,10 nM,200 nM,"COc1cc(C(F)(F)F)ccc1-c1ncnc2cc(S(=O)(=O)Nc3nccs3)ccc12 [Example 261, 4-(2-methoxy-4-(trifluoromethyl)phenyl)-N-(thiazol-2-yl)quinazoline-7-sulfonamide]",,> 30000 nM,
70 nM,,,"O=S(=O)(Nc1ncns1)c1ccc2c(-c3ccc(C(F)(F)F)cc3-c3ccncc3)nccc2c1 [Example 53, 1-(2-(PYRIDIN-4-YL)-4-(TRIFLUOROMETHYL)PHENYL)-N-(1,2,4-THIADIAZOL-5-YL)ISOQUINOLINE-6-SULFONAMIDE]",> 30000 nM,,
,50 nM,350 nM,"COc1cc(C(F)(F)F)ccc1-c1ccnc2cc(S(=O)(=O)Nc3nccs3)ccc12 [Example 276, 4-(2-METHOXY-4-(TRIFLUOROMETHYL)PHENYL)-N-(THIAZOL-2-YL)QUINOLINE-7-SULFONAMIDE]",,12300 nM,
110 nM,,,"O=S(=O)(Nc1nccs1)c1ccc2c(-c3ccc(C(F)(F)F)cc3Cl)nccc2c1 [Example 51, 1-(2-CHLORO-4-(TRIFLUOROMETHYL)PHENYL)-N-(THIAZOL-2-YL)ISOQUINOLINE-6-SULFONAMIDE]",> 30000 nM,,
,10 nM,134 nM,"COc1cc(C(F)(F)F)ccc1-c1nccc2cc(S(=O)(=O)Nc3ncns3)ccc12 [Example 195, 1-(2-METHOXY-4-(TRIFLUOROMETHYL)PHENYL)-N-(1,2,4-THIADIAZOL-5-YL)ISOQUINOLINE-6-SULFONAMIDE]",,> 30000 nM,
270 nM,,,Cn1nccc1-c1cc(C(F)(F)F)ccc1-c1cccc2cc(S(=O)(=O)Nc3nccs3)ccc12 [Example 47],5820 nM,,
30 nM,,,"O=S(=O)(Nc1ncns1)c1ccc2c(-c3ccc(C(F)(F)F)cc3Br)nccc2c1 [Example 50, 1-(2-BROMO-4-(TRIFLUOROMETHYL)PHENYL)-N-(1,2,4-THIADIAZOL-5-YL)ISOQUINOLINE-6-SULFONAMIDE]",> 30000 nM,,
,20 nM,156 nM,"COc1cc(-c2cccc(F)c2)ccc1-c1nccc2cc(S(=O)(=O)Nc3ccncn3)ccc12 [Example 199, 1-(3′-FLUORO-3-METHOXY-[1,1′-BIPHENYL]-4-YL)-N-(PYRIMIDIN-4-YL)ISOQUINOLINE-6-SULFONAMIDE 2,2,2-TRIFLUOROACETATE]",,> 30000 nM,
,,87 nM,"COc1cc(-c2cccc(C)c2)ccc1-c1nccc2cc(S(=O)(=O)Nc3ccncn3)ccc12 [Example 442, 1-(3-METHOXY-3′-METHYL-[1,1′-BIPHENYL]-4-YL)-N-(PYRIMIDIN-4-YL)ISOQUINOLINE-6-SULFONAMIDE]",,> 30000 nM,
,,101 nM,"COc1cc(-c2cc(F)cc(Cl)c2)ccc1-c1nccc2cc(S(=O)(=O)Nc3ccncn3)ccc12 [Example 491, 1-(3′-CHLORO-5′-FLUORO-3-METHOXY-[1,1′-BIPHENYL]-4-YL)-N-(PYRIMIDIN-4-YL)ISOQUINOLINE-6-SULFONAMIDE]",,> 30000 nM,
,,38 nM,"COc1ccc(-c2cccc(C(F)(F)F)c2)cc1-c1nccc2cc(S(=O)(=O)Nc3ccncn3)ccc12 [Example 349, 1-(4-METHOXY-3′-(TRIFLUOROMETHYL)-[1,1′-BIPHENYL]-3-YL)-N-(PYRIMIDIN-4-YL)ISOQUINOLINE-6-SULFONAMIDE]",,> 30000 nM,
,,132 nM,"COc1ccc(Cl)cc1-c1nccc2cc(S(=O)(=O)Nc3ncns3)ccc12 [Example 346, 1-(5-CHLORO-2-METHOXYPHENYL)-N-(1,2,4-THIADIAZOL-5-YL)ISOQUINOLINE-6-SULFONAMIDE]",,> 30000 nM,
,,662 nM,"COc1ccccc1-c1c(C#N)cnc2cc(S(=O)(=O)Nc3nccs3)ccc12 [Example 324, 3-CYANO-4-(2-METHOXYPHENYL)-N-(THIAZOL-2-YL)QUINOLINE-7-SULFONAMIDE]",,> 30000 nM,
